The values that follow come from patent US12195551B2, “Combination of an ErbB-2/ErbB-3 bispecific antibody with endocrine therapy for breast cancer” (Merus N.V., priority 2017, dated 2025).

Assay [1] deals with MCF-7 human breast carcinoma. The assay is described as follows: Efficacy in nude mouse xenograft model of MCF-7 human breast carcinoma. It counts as in vivo. Here is the method: MCLA-128 was evaluated as monotherapy and in combination with the SERM Tamoxifen and SERD Fulvestrant (Faslodex®) for efficacy in a nude mouse xenograft model of estrogen responsive MCF-7 human breast carcinoma. The study design also included tumor collection for downstream analysis.
Treatments began on D1 in mice with established subcutaneous MCF-7 tumors. The study endpoint was intended to be a tumor volume endpoint of 1000 mm3 45 days, whichever came first. […] Tumor regressions, mean tumor growth, and treatment tolerability also were considered.
The animals were fed ad libitum water (reverse osmosis, 1 ppm Cl) and NIH 31 Modified and Irradiated Lab Diet® consisting of 18.0% crude protein, 6.0% crude fat, and 5.0% crude fiber. The mice were housed on irradiated Enrich-o'Cobs™ Laboratory Animal Bedding in static 85 microisolators on a 12-hour light cycle at […] (68-72° F.) and 40-60% humidity.
Three days prior to tumor cell implantation, estrogen pellets (0.36 mg estradiol, 60-day release, Innovative Research of America, Sarasota, FL) were implanted subcutaneously between the scapulae of all test animals using a sterilized trocar.
Xenografts were initiated with cultured MCF-7 human breast carcinoma cells. Tumor cells were grown to mid-log phase in RPMI-1640 medium containing 10% fetal bovine serum, 100 units/mL penicillin G, 100 μg/mL streptomycin sulfate, 2 mM glutamine, 10 mM HEPES, 0.075% sodium bicarbonate and 25 μg/mL gentamicin. On the day of tumor cell implant, the cells were trypsinized, pelleted, and resuspended in phosphate buffered saline (PBS) at a concentration of 1×10e8 cells/mL. Each test mouse received 1×10e7 MCF-7 cells implanted subcutaneously in the right flank, and tumor growth was monitored as their mean volume approached the desired 100 to 150 mm3 range.
Nineteen days after tumor cell implantation, designated as D1 of the study, the mice were placed into six groups of 15 animals and four groups of six animals, Individual tumor volumes ranged from 75 to 196 mm3 and group mean tumor volumes of 134-137 mm3 on D1. Tumor weight was estimated with the assumption that 1 mg is equivalent to 1 mm3 of tumor volume.
MCLA-128 was stored at 4° C., was provided pre-formulated at 2.5 mg/mL and ready to dose as 25 mg/kg in a 10 mL/kg dose volume, and was protected from light during storage and handling. Tamoxifen (Sigma-25 Aldrich. Lot No. WXBB5732V) was received as a powder and was stored at 4° C. protected from light. Each week, a 5 mg/mL dose solution was prepared in corn oil, and each mouse received 0.2 mL for a dose of 1 mg/animal. The dose solution was stored at 4° C. Fulvestrant tradename Faslodex® (AstraZeneca, Lot No. LV032, LW466, and LX432) was received as 50 mg/mL stock solution that was stored at 4° C. Each dosing day, the stock was diluted in corn oil to 25 mg/mL, and each mouse received 0.2 mL for a dose of 5 mg/animal.
Groups 1 and 7 served as controls for efficacy and sampling, respectively, and received MCLA-128 vehicle intraperitoneally (i.p.) on D1, 4, 8, 11, 15, 18, 22, 25, and 29 and corn oil subcutaneously (s.c.) every other day for fifteen doses (qod×15). Groups 2 and 8 were administered MCLA-128 at 25 mg/kg, i.p., on the same schedule as MCLA-128 vehicle. Groups 3 and 9 were administered Faslodex® at 5.0 mg/animal, s.c., once weekly for five weeks (qwk×5). Group 4 was administered Tamoxifen at 1 mg/animal, s.c., qod×15. Groups 5 and 10 received MCLA-128 and Faslodex®, on the regimens described above. Group 6 received MCLA-128 and Tamoxifen on the regimens described above.
MCLA-128 was administered at a 10 mL/kg dose volume, scaled to the individual body weight of each animal.
(A xenograft is tissue or cells of one species grown in another, often human tumour cells in immunodeficient mice.)

The subject of the next assay is HBCx-34 PDX model. Conditions: model characterisation; cited from earlier work.
A further assay deals with HER2. The assay is described as follows: Reverse phase protein array (RPPA) in MCF-7 tumor xenografts: HER2. It counts as in vivo, human. Conditions: vs vehicle group, one-way ANOVA. The source says: FIG. 9. Reverse phase protein array (RPPA) in MCF-7 tumor xenografts treated with vehicle, MCLA-128, Fulvestrant, Tamoxifen, MCLA-128+ Fulvestrant or MCLA-128+ Tamoxifen. Proteins detected in this assay included (phospho)-Akt and (phospho)-HER3 (full data provided in Appendix 4). One-way ANOVA compared levels in all tumors derived from treatment groups with those derived from the PBS group. ** indicates P<0.01.
Tumors from groups 1-6 were collected when they had reached the maximum tolerated volume, or at the end of the experiment at day 39, which was 10 days after the last dose. Per treatment group, six tumors were included in the Reverse phase protein array (RPPA). The selection of tumors was made so that the average tumor size of the 6 specimens was close to that of the whole group. RPPA analysis was performed as follows: tumors were sectioned and placed on immunohistochemistry slides. Stromal and inflammatory content was macrodissected to purify for tumors cells. Protein lysates were prepared and protein content was quantified. […] Reverse phase protein array (RPPA) data were analyzed using one-way ANOVA to detect significant differences between the treatment groups and the vehicle group. […] Total ERK levels were increased in the single agent groups only, no differences were measured in the other groups or in the phosphorylated ERK analysis. […]

For the molecule `CC/C(=C(\c1ccccc1)c1ccc(OCCN(C)C)cc1)c1ccccc1` [Tamoxifen], the “% TGI (tumor growth inhibition)” value in assay [1] (D25, relative to the control group, MCLA-128 25 mg/kg i.p., Faslodex 5.0 mg/animal, Tamoxifen 1 mg/animal) turned out to be 69%. Moreover, in assay [1] (D25, MCLA-128 25 mg/kg i.p., Faslodex 5.0 mg/animal s.c. qwk×5, Tamoxifen 1 mg/animal s.c. qod×15), the median tumor volume is reported as 184 mm3. For the same molecule, the “P relative to the control group” value in assay [1] (D25 tumor volumes, Mann-Whitney test) is below 0.001. For the same molecule, in assay [1] (MCF-7 nude mouse xenograft model), the “anti-tumor efficacy / survival benefit (in words)” value is “significantly reduced tumor growth”. For the same molecule, the “response of the HBCx-34 PDX model” value in the assay with HBCx-34 PDX model is recorded as “responder”. Also, the “Total HER2 levels (RPPA)” value in the assay on HER2 is reported as “significantly increased”.
